Like-named read-outs stand apart in the source and are kept apart here.
Tests used:
TNFα = TNFα release by LPS-activated BV2 microglial cells, ELISA on conditioned cell media; type: cell-based; conditions: for TNFα release / LPS-induced microglial pro-inflammatory activation: Example 1, BV2 cells, FIGS. 2, 4B, 5; for TNFα release / LPS-induced microglial pro-inflammatory activation / EC50: 1 μg/mL LPS for 5 hours; for EC50: Mus musculus, BV-2, BV2 cells, read-out: EC50 of TNFα reduction
Procedure: Effects of urolithin A and fisetin on the reduction of pro-inflammatory cytokines levels, such as TNFα, were assessed in an unbiased library screening. BV2 microglial cells were converted to a pro-inflammatory activation state by acute treatment with 1 μg/mL of Lipopolysaccharide (LPS) for 5 hours in the presence of a vehicle or urolithin A or fisetin. Effects on inflammation were assessed by measuring levels of a representative pro-inflammatory cytokine, TNFα, via an ELISA assay on the conditioned cell media. FIGS. 2A and 2B show representative results of the dose-response reduction of TNFα after treatment with LPS and urolithin A and fisetin, respectively.
BV2 microglial cells were next treated with 1 μg/mL of LPS for 5 hours in the presence of urolithin A and fisetin at different concentrations, alone or in combination (FIG. 5). Levels of TNFα secreted by the microglial cells into the conditioned cell media were measured using ELISA.
Effects of urolithin A, fisetin, nicotinamide riboside, cat's claw, and quercetin, alone or in combination, on TNFα concentration were assessed (FIGS. 6A-6E and 7A-7C). BV2 microglial cells were converted to a pro-inflammatory activation state by acute treatment with 1 μg/mL of Lipopolysaccharide (LPS) for 5 hours in the presence of a vehicle or nicotinamide riboside (#101), cat's claw (#134), urolithin A (#144), fisetin (NP-82) or quercetin (NP-162), alone or in combination. Effects on inflammation were assessed by measuring levels of TNF&, via an ELISA assay on the conditioned cell media.

[1] = 500 mg to 1000 mg daily; cited from earlier work
BV2 microglial cells = assay: Microglial Aβ42 uptake/clearance in BV2 microglial cells, measured by Aβ ELISA; type: cell-based
Procedure: Urolithin A was identified as a top-tier enhancer of Aβ clearance by microglia in an unbiased (and biased) screening of natural product compounds. Cellular assay models based on BV2 microglial cells were used to assess the ability of microglia to phagocytose synthetic Aβ42 peptides, a major pathogenic Aβ isoform of Alzheimer's disease Aβ species (microglial uptake/clearance).
The ability of the agents, alone or in combination, to increase microglial Aβ uptake was also assessed (FIG. 9). […] FIGS. 11B-11D and FIGS. 12A-12F show TNFα levels in response to treatment with cat's claw (#134), urolithin A (#144), fisetin (NP-82) and quercetin (NP-162), alone or in various combinations.

| Compound | TNFα release / LPS-induced microglial pro-inflammatory activation (TNFα) | EC50 (TNFα; FIG. 2B) | reduction of TNFα levels (TNFα; fisetin alone, LPS-treated BV2 microglia cells, FIG. 4B) | EC50 (TNFα; FIG. 2A) | reported safety and/or usefulness [1] | microglial Aβ uptake/clearance (BV2 microglial cells; Example 1, BV2 microglial cells, FIG. 1 and FIG. 3) | EC50 (BV2 microglial cells; Mus musculus, BV-2, BV2 microglial cells, synthetic Aβ42 peptides, FIG. 1) |
| --- | --- | --- | --- | --- | --- | --- | --- |
| O=c1c(O)c(-c2ccc(O)c(O)c2)oc2cc(O)ccc12 [fisetin, 3,3′,4′,7-tetrahydroxyflavone] | reduce TNFα release by LPS-activated microglia in a dose-dependent manner | 8 µM | roughly 75% |  |  |  |  |
| O=c1oc2cc(O)ccc2c2ccc(O)cc12 [urolithin A, 3,8-dihydroxy-6H-benzo[b,d]pyran-6-one] | reduce TNFα release by LPS-activated microglia in a dose-dependent manner |  |  | 21 µM | safe and/or useful | increases microglial Aβ uptake/clearance in a dose-dependent manner | 12.4 µM |
